Read-outs that look alike come from different tables or passages of the source.
Experiments:
Assay type in all cases: cell-based
[1] = system: Proteus mirabilis (PMI) isolates; assay: microbe, parasite or virus in culture; details: for MIC ATB in combination: AF1 @ 4 μg/mL; for MIC: Proteus mirabilis, ATB alone, read-out: MIC
Procedure: (§1) Method 2: MIC of Compounds Alone and Combined with Antibacterials Against Bacterial Isolates.
(§2) Compounds of the present invention were assessed against genotyped bacterial strains (Table 3, 4) alone or in combination with an antibacterial (Table 2). […] Log phase bacterial suspensions were adjusted to a final density of 5·10^5 CFU/mL in cation-adjusted Mueller-Hinton broth (ca-MHB; Becton-Dickinson and Company) and added to each well (98 μL). Microplates were incubated for 16-20 h at 35° C. in ambient air. The MIC of the compounds was defined as the lowest concentration of said compounds that prevented bacterial growth as read by visual inspection. The MIC of ATB at each compound concentration was defined as the lowest concentration of ATB that prevented bacterial growth as read by visual inspection.

[2] = system: Enterobacter aerogenes (EAE) isolates; assay: MIC of compounds alone and combined with antibacterials, broth microdilution (CLSI); details: for MIC ATB in combination: AF1 @ 4 μg/mL; for MIC: Klebsiella aerogenes
Procedure: as §1, §2

[3] = system: Enterobacter cloacae (ECL) isolates; assay: as above; details: for MIC: Enterobacter cloacae, ATB alone
Procedure: as §1, §2

[4] = system: Escherichia coli (ECO) isolates; assay: as above; details: ECO 4133; AF1 @ 4 μg/mL
Procedure: as §1, §2

CO/N=C(\C(=O)N[C@@H]1C(=O)N2C(C(=O)O)=C(COC(N)=O)CS[C@H]12)c1ccco1 [FUR, Cefuroxime]
MIC ATB in combination ([1]; PMI UFR82): 4 µg/mL
MIC ATB in combination ([1]; PMI UFR120): 1 µg/mL
MIC ATB in combination ([1]; PMI UFR121): 2 µg/mL
MIC ATB in combination ([1]; PMI UFR122): 1 µg/mL
MIC ATB in combination ([1]; PMI UFR123): 1 µg/mL
MIC ATB in combination ([1]; PMI UFR124): 1 µg/mL
MIC ATB in combination ([1]; PMI UFR125): 1 µg/mL
MIC ATB in combination ([1]; PMI UFR126): 1 µg/mL
MIC ATB in combination ([1]; PMI UFR127): 1 µg/mL
MIC ATB in combination ([1]; PMI UFR129): 4 µg/mL
MIC ATB in combination ([1]; PMI UFR130): 4 µg/mL
MIC ATB in combination ([1]; PMI UFR237): 4 µg/mL
MIC ([1]; strain PMI UFR82 (CMY-2)): 16 µg/mL
MIC ([1]; strain PMI UFR120 (TEM-1, SHV-11, CTX-M-14)): > 256 µg/mL
MIC ([1]; strain PMI UFR121 (TEM-1, TEM-52)): > 256 µg/mL
MIC ([1]; strain PMI UFR122 (TEM-1, CTX-M-15)): > 256 µg/mL
MIC ([1]; strain PMI UFR123 (CTX-M-1)): > 256 µg/mL
MIC ([1]; strain PMI UFR124 (CTX-M-2)): > 256 µg/mL
MIC ([1]; strain PMI UFR125 (CTX-M-71)): > 256 µg/mL
MIC ([1]; strain PMI UFR126 (TEM-2, PER-1)): > 256 µg/mL
MIC ([1]; strain PMI UFR127 (VEB-1)): > 256 µg/mL
MIC ([1]; strain PMI UFR129 (TEM-1, VEB-6)): > 256 µg/mL
MIC ([1]; strain PMI UFR130 (CMY-2)): 8 µg/mL
MIC ([1]; strain PMI UFR237 (VEB-6)): > 256 µg/mL
MIC ATB in combination ([2]; EAE 49469): 64 µg/mL
MIC ATB in combination ([2]; EAE 200261): 64 µg/mL
MIC ATB in combination ([2]; EAE UFR199): 8 µg/mL
MIC ATB in combination ([2]; EAE UFR201): 2 µg/mL
MIC ATB in combination ([2]; EAE UFR202): 32 µg/mL
MIC ATB in combination ([2]; EAE UFR213): 8 µg/mL
MIC [2]: > 256 µg/mL
MIC ([2]; strain EAE 49469 (AmpC), ATB alone, read-out: MIC): > 128 µg/mL
MIC ([2]; strain EAE 200261 (TEM-x, AmpC), ATB alone, read-out: MIC): > 256 µg/mL
MIC ([2]; strain EAE UFR201 (TEM-1, SHV-12, CTX-M-15), ATB alone, read-out: MIC): > 256 µg/mL
MIC ([2]; strain EAE UFR202 (TEM-24), ATB alone, read-out: MIC): > 256 µg/mL
MIC ([2]; strain EAE UFR213 (TEM-24), ATB alone, read-out: MIC): > 256 µg/mL
MIC ATB in combination ([3]; ECL 190408, AF1 @ 4 μg/mL): 4 µg/mL
MIC ATB in combination ([3]; ECL 200322, AF1 @ 4 μg/mL): 32 µg/mL
MIC ATB in combination ([3]; ECL 260508, AF1 @ 4 μg/mL): 32 µg/mL
MIC ATB in combination ([3]; ECL P99, AF1 @ 4 μg/mL): 64 µg/mL
MIC ATB in combination ([3]; ECL UFR12, AF1 @ 4 μg/mL): 16 µg/mL
MIC ATB in combination ([3]; ECL UFR60, AF1 @ 4 μg/mL): 64 µg/mL
MIC ATB in combination ([3]; ECL UFR70, AF1 @ 4 μg/mL): 32 µg/mL
MIC ATB in combination ([3]; ECL UFR194, AF1 @ 4 μg/mL): 32 µg/mL
MIC ATB in combination ([3]; ECL UFR200, AF1 @ 4 μg/mL): 16 µg/mL
MIC ([3]; strain ECL UFR197 (TEM-1, CTX-M-15, OXA-1, OXA-48)): > 256 µg/mL
MIC ([3]; strain ECL UFR198 (TEM-1, SHV-12, CTX-M-15, DHA-1, OXA-1, OXA-48)): > 256 µg/mL
MIC ([3]; strain ECL 2185D (OXA-163)): > 256 µg/mL
MIC ([3]; strain ECL 190310 (AmpC)): > 256 µg/mL
MIC ([3]; strain ECL 190408 (TEM-1, CTX-M-15, OXA-1)): > 256 µg/mL
MIC ([3]; strain ECL 200138 (AmpC)): > 256 µg/mL
MIC ([3]; strain ECL 200322 (TEM-1, CTX-M-15, OXA-1)): > 256 µg/mL
MIC ([3]; strain ECL 260033 (AmpC)): > 256 µg/mL
MIC ([3]; strain ECL 260253 (TEM-1, KPC-3)): > 256 µg/mL
MIC ([3]; strain ECL 260323 (AmpC)): > 256 µg/mL
MIC ([3]; strain ECL 260508 (TEM-1, CTX-M-15)): > 256 µg/mL
MIC ([3]; strain ECL NEM146383 (AmpC)): > 256 µg/mL
MIC ([3]; strain ECL P99 (AmpC), read-out: MIC): > 512 µg/mL
MIC ([3]; strain ECL UFR12 (CTX-M-9, OXA-48)): > 256 µg/mL
MIC ([3]; strain ECL UFR13 (TEM-1, SHV-12, CTX-M-9, OXA-48)): > 256 µg/mL
MIC ([3]; strain ECL UFR14 (TEM-1, SHV-12, CTX-M-15, DHA-1, OXA-1, OXA-48)): > 256 µg/mL
MIC ([3]; strain ECL UFR60 (TEM-1, CTX-M-15, KPC-2)): > 256 µg/mL
MIC ([3]; strain ECL UFR70 (TEM-1, CTX-M-15, CMY-2, OXA-1, Porin loss)): > 256 µg/mL
MIC ([3]; strain ECL UFR84 (TEM-1, AmpC, OXA-1)): > 256 µg/mL
MIC ([3]; strain ECL UFR85 (TEM-1, CTX-M-15, AmpC)): > 256 µg/mL
MIC ([3]; strain ECL UFR194 (OXA-48)): 32 µg/mL
MIC ([3]; strain ECL UFR195 (TEM-1, CTX-M-15, OXA-1, OXA-48)): > 256 µg/mL
MIC ([3]; strain ECL UFR196 (TEM-1, CTX-M-15, OXA-1, OXA-48)): > 256 µg/mL
MIC ([3]; strain ECL UFR200 (TEM-1, SHV-12, KPC-2)): > 256 µg/mL
MIC ATB in combination ([3]; strain ECL UFR195, antibacterial combined with AF1 @ 4 μg/mL): 32 µg/mL
MIC ATB in combination ([3]; strain ECL UFR196, antibacterial combined with AF1 @ 4 μg/mL): 64 µg/mL
MIC ATB in combination ([3]; strain ECL UFR197, antibacterial combined with AF1 @ 4 μg/mL): 64 µg/mL
MIC ATB in combination [4]: 4 µg/mL
